Laboratory results taken from patent US20260325654A1, “METHODS AND COMPOSITIONS FOR TARGETED PROTEIN DEGRADATION” (Ranok Therapeutics (Hangzhou) Co. Ltd., priority 2023, published 2026).
pIC50: −log10 of the molar value. Where a name gives a salt, the structure may show the parent alone.

Tests used:
Type in all cases: cell-based, human
AGS = test: CellTiter-Glo Reagent cancer cell line proliferation assay, AGS; details: Homo sapiens, 24 h, KRAS(G12D) heterozygous
Description: (§1) The following cancer cell lines were employed: • AsPC-1 human pancreatic adenocarcinoma, homozygous KRAS(G12D), (ATCC, #CRL-1682); A-427 human lung carcinoma, heterozygous KRAS(G12D), (ATCC, #HTB-53); AGS human gastric adenocarcinoma, heterozygous KRAS(G12D), (ATCC, #CRL-1739); GP2D human colon adenocarcinoma, heterozygous KRAS(G12D), (Sigma Aldrich, 95090714); SW1990 human pancreatic adenocarcinoma, homozygous KRAS(G12D), (ATCC, #CRL2172); LU65A human lung giant cell carcinoma, heterozygous KRAS(G12C), (JCRB Cell Bank, #JCRB0054); NCIH727 human lung carcinoid, heterozygous KRAS(G12V), (ATCC, #CRL-5815); MKN1 human gastric adenosquamous carcinoma KRAS (wt), (JCRB Cell Bank, #JCRB0252). Cell lines were cultured according to ATCC, JCRB and Sigma Aldrich recommendations.
(§2) Cells were plated in 96-well tissue culture plates at 4,000 cells/well and incubated at 37° C./5% CO2 for 24 hr in 100 μl of media. 3-fold serial dilutions of each test compound were prepared ranging from 20 μM to 1.02 nM. Cells were then treated with test compounds at various concentrations with a final concentration of 0.5% DMSO/well, and then incubated at 37° C./5% CO2 for 24 hr. 100 μl of CellTiter-Glo® Reagent (Promega Corporation, Madison, WI) was added to each well and processed according manufacturer's protocol. Results were analyzed and IC50-values were calculated in GraphPad 7 software.

NCIH727 = test: CellTiter-Glo Reagent cancer cell line proliferation assay, NCIH727; details: Homo sapiens, NCI-H727, 24 h, NCIH727, KRAS(G12V) heterozygous
Description: as §1, §2

LU65A = test: CellTiter-Glo Reagent cancer cell line proliferation assay, LU65A; details: Homo sapiens, 24 h, KRAS(G12C) heterozygous
Description: as §1, §2

In the case of `C#Cc1cccc2cccc(-c3ncc4c(N5CC6CCC(C5)N6)nc(OCCN5CCN(Cc6ccc7c(c6)C(=O)N(C6CCC(=O)NC6=O)C7=O)CC5)nc4c3F)c12` (stereo not shown) [Compound 1, 5-((4-(2-((4-(3,8-diazabicyclo[3.2.1]octan-3-yl)-7-(8-ethynylnaphthalen-1-yl)-8-fluoropyrido[4,3-d]pyrimidin-2-yl)oxy)ethyl)piperazin-1-yl)methyl)-2-(2,6-dioxopiperidin-3-yl) isoindoline-1,3-dione hydrochloride], the pIC50 (AGS) was less than 6.00.
With `C#Cc1c(F)ccc2cc(O)cc(-c3nc(OC)c4c(N5CC6CCC(C5)N6C(=O)C(C#N)CC#N)nc(OCC5(CN6CCN(CC7CCN(c8ccc9c(c8)CN(C8CCC(=O)NC8=O)C9=O)CC7)CC6)CC5)nc4c3F)c12` (stereo not shown) [Compound 126] the pIC50 (NCIH727) was greater than 7.00, the pIC50 (LU65A) was greater than 7.00 and the pIC50 (AGS) was greater than 7.00.
With `C#Cc1c(F)ccc2cc(O)cc(-c3nc(OC)c4c(N5CCCOCC5)nc(OCC5(CN6CCN(CC7CCN(c8ccc9c(c8)CN(C8CCC(=O)NC8=O)C9=O)CC7)CC6)CC5)nc4c3F)c12` (stereo not shown) [Compound 127] the pIC50 (NCIH727) was greater than 7.00, the pIC50 (LU65A) was greater than 7.00 and the pIC50 (AGS) was greater than 7.00.
Work on `C#Cc1c(F)ccc2cc(O)cc(-c3ncc4c(N5CC6CCC(C5)N6C(=O)NC5CCC5)nc(OCC5(CN6CCN(CC7CCN(c8ccc9c(c8)CN(C8CCC(=O)NC8=O)C9=O)CC7)CC6)CC5)nc4c3F)c12` (stereo not shown) [Compound 128] yielded a pIC50 (NCIH727) greater than 7.00, a pIC50 (LU65A) greater than 7.00 and a pIC50 (AGS) greater than 7.00.
In the case of `C#Cc1c(F)ccc2cc(O)cc(-c3ncc4c(N5CC6CCC(C5)N6C(=O)CC(C)C#N)nc(OCC5(CN6CCN(CC7CCN(c8ccc9c(c8)CN(C8CCC(=O)NC8=O)C9=O)CC7)CC6)CC5)nc4c3F)c12` (stereo not shown) [Compound 129], the pIC50 (NCIH727) was greater than 7.00, the pIC50 (LU65A) was greater than 7.00 and the pIC50 (AGS) was greater than 7.00.
`C#Cc1c(F)ccc2cc(O)cc(-c3ncc4c(N5CC6CCC(C5)N6C(=O)CC(C)C#N)nc(OCC5(CN6CCN(CC7CCN(c8ccc9c(c8)CN(C8CCC(=O)N(C)C8=O)C9=O)CC7)CC6)CC5)nc4c3F)c12` (stereo not shown) [Compound 130] gave a pIC50 (NCIH727) of 6.00 to 7.00, a pIC50 (LU65A) of 6.00 to 7.00 and a pIC50 (AGS) of 6.00 to 7.00.
`C#Cc1c(F)ccc2cc(O)cc(-c3ncc4c(N5CC6CCC(C5)N6C(=O)CC(C)(C)C#N)nc(OCC5(CN6CCN(CC7CCN(c8ccc9c(c8)CN(C8CCC(=O)NC8=O)C9=O)CC7)CC6)CC5)nc4c3F)c12` (stereo not shown) [Compound 131] showed a pIC50 (NCIH727) greater than 7.00, a pIC50 (LU65A) greater than 7.00 and a pIC50 (AGS) greater than 7.00.
In the case of `C#Cc1c(F)ccc2cc(O)cc(-c3ncc4c(N5CC6CCC(C5)N6C(=O)CC(C)C#N)nc(OCC5(CN(C)Cc6ccc(C7CN(c8ccc9c(c8)CN(C8CCC(=O)NC8=O)C9=O)C7)cc6)CC5)nc4c3F)c12` (stereo not shown) [Compound 132], the pIC50 (NCIH727) was greater than 7.00, the pIC50 (LU65A) was greater than 7.00 and the pIC50 (AGS) was greater than 7.00.
`C#Cc1c(F)ccc2cc(O)cc(-c3ncc4c(N5CC6CCC(C5)N6C(=O)CC(C)C#N)nc(OCC5CCCN(CC6CCN(c7ccc8c(c7)CN(C7CCC(=O)NC7=O)C8=O)CC6)C5)nc4c3F)c12` (stereo not shown) [Compound 133] showed a pIC50 (NCIH727) greater than 7.00, a pIC50 (LU65A) greater than 7.00 and a pIC50 (AGS) greater than 7.00.
`C#Cc1c(F)ccc2cc(O)cc(-c3ncc4c(N5CCCOCC5)nc(OCC5(CN6CCN(CC7CCN(c8ccc9c(c8)CN(C8CCC(=O)NC8=O)C9=O)CC7)CC6)CC5)nc4c3F)c12` (stereo not shown) [Compound 134] gave a pIC50 (NCIH727) greater than 7.00, a pIC50 (LU65A) greater than 7.00 and a pIC50 (AGS) greater than 7.00.
With `C#Cc1c(F)ccc2cc(O)cc(-c3nc(OC)c4c(N5CC6CCC(C5)N6C(=O)CC(C)C#N)nc(OCC5(CN6CCN(CC7CCN(c8ccc9c(c8)CN(C8CCC(=O)NC8=O)C9=O)CC7)CC6)CC5)nc4c3F)c12` (stereo not shown) [Compound 135] the pIC50 (NCIH727) was greater than 7.00, the pIC50 (LU65A) was greater than 7.00 and the pIC50 (AGS) was greater than 7.00.
